From patent US20150239889A1, “PYRAZOLOPYRIMIDINE COMPOUND” (MITSUBISHI TANABE PHARMA CORPORATION, priority 2012, published 2015)

How the values were obtained:
[1] = target: T1, human HIF-PHD2 (Homo sapiens, UniProt Q9GZT9); assay: HIF-PHD inhibition assay (fluorescence polarization), human HIF-PHD2; type: biochemical; conditions: 2-oxoglutaric acid 3.33 μmol/L
T1 construct: purchased CrystalGenomics Ltd
Procedure, shortened: (§1)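 Activity was derived as the fluorescence polarization (mP) after enzyme addition minus that measured before enzyme addition. Probe bore a 5′-fluoresceinamide (FAM) label with an aminocaproic acid (ACA) linker.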

[2] = target: T2, human HIF-PHD3 (Homo sapiens, UniProt Q9H6Z9); assay: HIF-PHD inhibition assay (fluorescence polarization), human HIF-PHD3; type: biochemical; conditions: 2-oxoglutaric acid 166 μmol/L
T2 construct: purchased CrystalGenomics Ltd
Procedure, shortened: as §1

[3] = tested on: Hep3B cells; assay: EPO production assay (ELISA of culture supernatant); type: cell-based; conditions: Homo sapiens, 3 μmol/L test compound, 48 hours, relative to control (0.1% DMSO), read-out: EPO production stimulation rate with 3 μmol/L test compound
Procedure, shortened: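 Hep3B cells (40000/well) switched to MEM with 0.5% FBS and treated with compound (0.1% DMSO) for 48 h at 37 °C. Supernatant EPO measured by ELISA; value is fold stimulation at 3 μmol/L compound over unstimulated control.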

T1 sequence (Q9GZT9 2-426 limits assumed): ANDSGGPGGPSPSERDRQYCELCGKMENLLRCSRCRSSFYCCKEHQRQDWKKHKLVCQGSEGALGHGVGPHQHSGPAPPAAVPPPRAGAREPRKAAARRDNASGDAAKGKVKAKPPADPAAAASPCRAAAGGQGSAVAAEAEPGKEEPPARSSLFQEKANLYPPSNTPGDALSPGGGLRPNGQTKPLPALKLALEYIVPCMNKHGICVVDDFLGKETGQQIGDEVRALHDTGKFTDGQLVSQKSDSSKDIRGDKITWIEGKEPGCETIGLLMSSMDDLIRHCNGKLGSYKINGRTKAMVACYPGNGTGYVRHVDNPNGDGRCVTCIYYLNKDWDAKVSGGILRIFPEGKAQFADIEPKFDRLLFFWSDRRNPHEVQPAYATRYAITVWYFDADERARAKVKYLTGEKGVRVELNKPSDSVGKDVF
T2 sequence (Q9H6Z9 whole entry): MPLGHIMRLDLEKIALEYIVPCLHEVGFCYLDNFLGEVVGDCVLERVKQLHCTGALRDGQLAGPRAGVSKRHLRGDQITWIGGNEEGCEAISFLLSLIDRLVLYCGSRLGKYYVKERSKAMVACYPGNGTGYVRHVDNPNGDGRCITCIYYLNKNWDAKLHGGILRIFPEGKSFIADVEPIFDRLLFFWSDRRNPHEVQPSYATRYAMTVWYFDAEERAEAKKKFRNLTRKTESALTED

IC50 [1] | IC50 [2] | SMILES | fold induction at 3 µM [3]
14 nM | 540 nM | O=C(O)c1cnn(-c2nc(O)c3c(cnn3CCCOc3ccc4c(c3)CCCC4)n2)c1 [Example 188] | 23
20 nM | 150 nM | Cc1cc2c(cc1OCCCn1ncc3nc(-n4cc(C(=O)O)cn4)nc(O)c31)CCCC2 [Example 189] | 8.7
130 nM | 540 nM | O=C(O)c1cnn(-c2nc(O)c3c(cnn3CCCOc3ccc4c(c3C3CC3)CCCC4)n2)c1 [Example 191] | 1.6
85 nM | 190 nM | O=C(O)c1cnn(-c2nc(O)c3c(cnn3CCCOc3cccc4c3CCCC4)n2)c1 [Example 193] | 9.8
14 nM | 53 nM | O=C(O)c1cnn(-c2nc(O)c3c(cnn3CCCOc3ccc(Cl)c4c3CCC4)n2)c1 [Example 194] | 18
89 nM | 1200 nM | O=C(O)c1cnn(-c2nc(O)c3c(cnn3CC3(COc4ccc(Cl)cc4)CC3)n2)c1 [Example 198] | 3.2
130 nM | 1100 nM | O=C(O)c1cnn(-c2nc(O)c3c(cnn3CC3(COc4ccc5c(c4)CCCC5)CC3)n2)c1 [Example 199] | 5
12 nM | 1800 nM | O=C(O)c1cnn(-c2nc(O)c3c(cnn3CCOc3ccccc3)n2)c1 [Example 200] | 1.4
14 nM | 240 nM | O=C(O)c1cnn(-c2nc(O)c3c(cnn3CCOc3ccc4c(c3)CCCC4)n2)c1 [Example 208] | 7.1
33 nM | 230 nM | CC(C)(Cn1ncc2nc(-n3cc(C(=O)O)cn3)nc(O)c21)Oc1ccccc1Cl [Example 209] | 2.2
21 nM | 220 nM | CC(C)(Cn1ncc2nc(-n3cc(C(=O)O)cn3)nc(O)c21)Oc1ccc(Cl)cc1 [Example 210] | 19
26 nM | 180 nM | Cc1ccc(OC(C)(C)Cn2ncc3nc(-n4cc(C(=O)O)cn4)nc(O)c32)c2c1CCC2 [Example 211] | 8.9
17 nM | 220 nM | CC(C)(Cn1ncc2nc(-n3cc(C(=O)O)cn3)nc(O)c21)Oc1ccc2c(c1)CCCC2 [Example 214] | 6.8
32 nM | 920 nM | O=C(O)c1cnn(-c2nc(O)c3c(n2)c(F)nn3CC2CCCCC2)c1 [Example 217] | 2.4
15 nM | 750 nM | C[C@H]1CC[C@H](Cn2nc(F)c3nc(-n4cc(C(=O)O)cn4)nc(O)c32)CC1 [Example 218] | 3
48 nM | 450 nM | O=C(O)c1cnn(-c2nc(O)c3c(n2)c(Cl)nn3CC2CCCCC2)c1 [Example 222] | 1.5
28 nM | 950 nM | C[C@H]1CC[C@H](Cn2nc(Cl)c3nc(-n4cc(C(=O)O)cn4)nc(O)c32)CC1 [Example 223] | 3.2
11 nM | 91 nM | CC(C)[C@H]1CC[C@H](Cn2nc(Cl)c3nc(-n4cc(C(=O)O)cn4)nc(O)c32)CC1 [Example 224] | 8.4
47 nM | 1400 nM | O=C(O)c1cnn(-c2nc(O)c3c(n2)c(Cl)nn3CC2CCCCCC2)c1 [Example 226] | 2.2
91 nM | 660 nM | O=C(O)c1cnn(-c2nc(O)c3c(n2)c(C2CC2)nn3CC2CCCCC2)c1 [Example 234] | 5.7
23 nM | 290 nM | O=C(O)c1cnn(-c2nc(O)c3c(cnn3CC3CCC4(CC3)CC4)n2)c1 [Example 378] | 9.6

Further lines, the compound ahead of its results:

SMILES | IC50 [1] | IC50 [2] | fold induction at 3 µM [3]
O=C(O)c1cnn(-c2nc(O)c3c(cnn3CCCOc3ccc4ccccc4c3)n2)c1 [Example 187] | 12 nM | 220 nM | 10
O=C(O)c1cnn(-c2nc(O)c3c(cnn3CCCOc3cccc4ccccc34)n2)c1 [Example 192] | 28 nM | 350 nM | 3.5
O=C(O)c1cnn(-c2nc(O)c3c(cnn3CCCOc3ccc(-c4ccccc4)cc3)n2)c1 [Example 196] | 20 nM | 300 nM | 25
CC(C)(COc1ccc(Cl)cc1)Cn1ncc2nc(-n3cc(C(=O)O)cn3)nc(O)c21 [Example 197] | 190 nM | 760 nM | 5.8
O=C(O)c1cnn(-c2nc(O)c3c(cnn3CCOc3ccccc3C(F)(F)F)n2)c1 [Example 201] | 130 nM | 860 nM | 3.2
O=C(O)c1cnn(-c2nc(O)c3c(cnn3CCOc3cccc(C(F)(F)F)c3)n2)c1 [Example 202] | 59 nM | 300 nM | 3.6
O=C(O)c1cnn(-c2nc(O)c3c(cnn3CCOc3ccc(C(F)(F)F)cc3)n2)c1 [Example 203] | 65 nM | 170 nM | 4.5
CC(C)(C)c1ccc(OCCn2ncc3nc(-n4cc(C(=O)O)cn4)nc(O)c32)cc1 [Example 204] | 19 nM | 650 nM | 12
O=C(O)c1cnn(-c2nc(O)c3c(cnn3CCOc3ccc(-c4ccccc4)cc3)n2)c1 [Example 205] | 13 nM | 280 nM | 20
O=C(O)c1cnn(-c2nc(O)c3c(cnn3CCOc3cccc4ccccc34)n2)c1 [Example 206] | 32 nM | 510 nM | 2.2
O=C(O)c1cnn(-c2nc(O)c3c(cnn3CCOc3ccc4ccccc4c3)n2)c1 [Example 207] | 13 nM | 160 nM | 2.5
CC(C)(Cn1ncc2nc(-n3cc(C(=O)O)cn3)nc(O)c21)Oc1cccc2ccccc12 [Example 212] | 26 nM | 310 nM | 2.7
CC(C)(Cn1ncc2nc(-n3cc(C(=O)O)cn3)nc(O)c21)Oc1ccc2ccccc2c1 [Example 213] | 17 nM | 110 nM | 6.4
O=C(O)c1cnn(-c2nc(O)c3c(cnn3CCCCOc3ccc(F)cc3)n2)c1 [Example 215] | 14 nM | 290 nM | 6.7
O=C(O)c1cnn(-c2nc(O)c3c(n2)c(F)nn3Cc2ccc3ccccc3c2)c1 [Example 216] | 15 nM | 300 nM | 1.5
O=C(O)c1cnn(-c2nc(O)c3c(n2)c(Cl)nn3Cc2ccc(Br)cc2)c1 [Example 220] | 14 nM | 340 nM | 4

SMILES | IC50 [1] | IC50 [2] | fold induction at 3 µM [3]
Cc1nn(Cc2ccc(-c3ccccc3)cc2)c2c(O)nc(-n3cc(C(=O)O)cn3)nc12 [Example 228] | 10 nM | 68 nM | 3.9
O=C(O)c1cnn(-c2nc(O)c3nn(Cc4ccc(Cl)c(Cl)c4)cc3n2)c1 [Example 235] | 3 nM | 13 nM | 1.9
COc1ccc(Cn2cc3nc(-n4cc(C(=O)O)cn4)nc(O)c3n2)cc1 [Example 236] | 11 nM | 77 nM | 0.91
O=C(O)c1cnn(-c2nc(O)c3nn(Cc4cc(C(F)(F)F)cc(Cl)c4F)cc3n2)c1 [Example 238] | 10 nM | 770 nM | 0.7
O=C(O)c1cnn(-c2nc(O)c3nn(C(c4ccc(Cl)cc4)c4ccc(Cl)cc4)cc3n2)c1 [Example 239] | 5.5 nM | 99 nM | 1.4
O=C(O)c1cnn(-c2nc(O)c3nn(Cc4cccc(-c5ccccc5)c4)cc3n2)c1 [Example 240] | 17 nM | 140 nM | 1
O=C(O)c1cnn(-c2nc(O)c3nn(Cc4ccccc4-c4ccccc4)cc3n2)c1 [Example 241] | 8.7 nM | 370 nM | 1.2
O=C(O)c1cnn(-c2nc(O)c3nn(Cc4ccc5ccccc5c4)cc3n2)c1 [Example 242] | 17 nM | 150 nM | 1.7
O=C(O)c1cnn(-c2nc(O)c3nn(CCc4ccc5ccccc5c4)cc3n2)c1 [Example 243] | 57 nM | 260 nM | 1.6
O=C(O)c1cnn(-c2nc(O)c3nn(Cc4ccc(Cl)cc4F)cc3n2)c1 [Example 244] | 63 nM | 180 nM | 1.4
O=C(O)c1cnn(-c2nc(O)c3nn(Cc4ccc(-c5ccccc5)cc4F)cc3n2)c1 [Example 245] | 2.3 nM | 68 nM | 6.2
O=C(O)c1cnn(-c2nc(O)c3nn(CCCN(c4ccccc4)c4ccccc4)cc3n2)c1 [Example 246] | 21 nM | 160 nM | 1.8
O=C(O)c1cnn(-c2nc(O)c3nn(CC4CCN(c5ccc(C(F)(F)F)cn5)CC4)cc3n2)c1 [Example 247] | 17 nM | 270 nM | 1.3
O=C(O)c1cnn(-c2nc(O)c3nn(CCC(c4ccccc4)c4ccccc4)cc3n2)c1 [Example 248] | 15 nM | 99 nM | 3.2
CCC(c1ccc(C(F)(F)F)cc1)n1ncc2nc(-n3cc(C(=O)O)cn3)nc(O)c21 (stereo not drawn) [Example 326] | 53 nM | 360 nM | 7.7
